These are literature values, as cited in publication PMC11054638, “Transport of Non-Steroidal Anti-Inflammatory Drugs across an Oral Mucosa Epithelium In Vitro Model” (Pharmaceutics, 2024).

Data set [1] relates to COX-2. Set-up: method as in PMID 16678543. As to conditions: 48 h post-surgery, compared to the placebo group ref 62; cited from earlier work.
On the set-up of data set [2]: method as in PMID 15157608. As to conditions: cited from earlier work.
In data set [3] the test system is COX-2. Also noted: method as in PMID 10866999. As to conditions: human cell lines ref 59; cited from earlier work.

As for `CS(=O)(=O)c1ccc(C2=C(c3ccccc3)C(=O)OC2)cc1` [rofecoxib], in the data set with COX-2 [1], the “COX-2 expression in the oral mucosa” value is “induced COX-2 expression”.

In the case of `C[C@]12CCC(=O)C=C1CC[C@@H]1[C@@H]2[C@@H](O)C[C@@]2(C)[C@H]1CC[C@]2(O)C(=O)CO` [hydrocortisone], the biological half-life in data set [2] is 8–12 h. As for `O=C(O)c1ccccc1Nc1cccc(C(F)(F)F)c1` [flufenamic acid], the COX-2 expression entry in the data set on COX-2 [3] is recorded as “NF-κB-independent upregulation of COX-2”.
